We go through 29 molecules from US8354419B2, “Benzimidazole analogues for the treatment or prevention of flavivirus infections” (Vertex Pharmaceuticals Incorporated, priority 2009, dated 2013).

Where only a bound is given, the exact number is not on record here.

The subject of the first test is HCV (Ib) RNA replication. Nature of the test: Cell-based luciferase reporter HCV (1b) RNA replication assay (replicon cell lines Huh-7 5.2 and ET). Details: species or system Hepatitis C virus. The settings on record: HCV 1b genotype replicon, luciferase readout, 4 days incubation; read-out: EC50_1b. Summed up:
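Compounds were tested at eleven concentrations in duplicate over 4 days at 37 °C, 5% CO2. The cells were luciferase-reporter HCV 1b replicon lines 5.2 (NS5A adaptive mutation) or ET (NS4B mutation). Luminescence of lysates was measured, and IC50s were derived by nonlinear curve fitting.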
Background: Reporter assays use an easily measured gene product as a stand-in for the process of interest.
Consider `COC(=O)NC(C(=O)N1CCCC1c1nc2cc(-c3ccc(-c4ccc5nc(C6CCCN6C(=O)C(NC(=O)OC)C(C)(C)C)[nH]c5c4)cc3)ccc2[nH]1)C(C)(C)C` (centres unmarked) [Compound 191], for which the EC50 was not above 5 nM.

The same test, now with this note: Hepatitis C virus, Huh-7, 96 h, HCV 1b genotype replicon, luciferase readout, 4 days incubation; read-out: EC50_1b.
Take `COC(=O)N[C@@H](C(=O)N1CCC[C@H]1c1nc2cc(-c3ccc(-c4ccc5[nH]c([C@@H]6CCCN6C(=O)[C@H](NC(=O)OC)C(C)C)nc5c4)nn3)ccc2[nH]1)C(C)C` [Compound 162]: the EC50 is not above 5 nM.
Regarding `COC(=O)N[C@H](C(=O)N1CCC[C@H]1c1nc2cc(-c3ccc(-c4ccc5[nH]c([C@@H]6CCCN6C(=O)[C@@H](NC(=O)OC)C(C)C)nc5c4)c4ncccc34)ccc2[nH]1)C(C)C` [Compound 163], the EC50 is not above 5 nM.
Still for that read-out and setting: as for `COC(=O)N[C@H](C(=O)N1CCC[C@H]1c1nc2cc(-c3ccc(-c4ccc5nc([C@@H]6CCCN6C(=O)[C@@H](NC(=O)OC)C(C)C)[nH]c5c4)cc3NC(C)=O)ccc2[nH]1)C(C)C` [Compound 164], the figure is not above 5 nM; as for `COC(=O)N[C@H](C(=O)N1C[C@H](F)C[C@H]1c1nc2cc(-c3ccc(-c4ccc5nc([C@@H]6C[C@@H](F)CN6C(=O)[C@@H](NC(=O)OC)C(C)C)[nH]c5c4)cc3)ccc2[nH]1)C(C)C` [Compound 165], not above 5 nM; as for `COC(=O)N[C@H](C(=O)N1CCC[C@H]1c1nc2cc(-c3ccc(-c4ccc5nc([C@@H]6CCCN6C(=O)[C@@H](NC(=O)OC)C(C)C)[nH]c5c4)c(OC)c3OC)ccc2[nH]1)C(C)C` [Compound 166], not above 5 nM.
The same measure, in the same setting: next, `COC(=O)N[C@H](C(=O)N1CCC[C@H]1c1nc2cc(-c3cc4sc(-c5ccc6nc([C@@H]7CCCN7C(=O)[C@@H](NC(=O)OC)C(C)C)[nH]c6c5)cc4s3)ccc2[nH]1)C(C)C` [Compound 167]: not above 5 nM; `COC(=O)N[C@H](C(=O)N1CCOC[C@H]1c1nc2cc(-c3ccc(-c4ccc5nc([C@@H]6COCCN6C(=O)[C@@H](NC(=O)OC)C(C)C)[nH]c5c4)cc3)ccc2[nH]1)C(C)C` [Compound 168]: not above 5 nM.
Still for that read-out and setting: next, `COC(=O)N[C@H](C(=O)N1C[C@@H](F)C[C@H]1c1nc2cc(-c3ccc(-c4ccc5nc([C@@H]6C[C@H](F)CN6C(=O)[C@@H](NC(=O)OC)C(C)C)[nH]c5c4)cc3)ccc2[nH]1)C(C)C` [Compound 169]: not above 5 nM; `COC(=O)N[C@H](C(=O)N1CCC[C@H]1c1nc2cc(-c3ccc(-c4ccc5[nH]c([C@@H]6CCCN6C(=O)[C@@H](NC(=O)OC)[C@@H](C)OC)nc5c4)cc3)ccc2[nH]1)[C@@H](C)OC` [Compound 170]: not above 5 nM.
Turning to `COC(=O)N[C@@H](C(=O)N1CCC[C@H]1c1nc2cc(-c3ccc(-c4ccc5[nH]c([C@@H]6CCCN6C(=O)[C@H](NC(=O)OC)C(C)C)nc5c4)cc3)ccc2[nH]1)C(C)C` [Compound 171], the EC50 was 5 to 5000 nM.
On the same count and under the same terms, as for `COC(=O)N[C@H](C(=O)N1CCC[C@H]1c1nc2cc(-c3ccc(-c4ccc5nc([C@@H]6CCCN6C(=O)[C@@H](NC(=O)OC)C(C)C)[nH]c5c4)c4c3OCCO4)ccc2[nH]1)C(C)C` [Compound 172], the figure is not above 5 nM.
For `COC(=O)N[C@H](C(=O)N1CCC[C@H]1c1nc2cc(-c3ccc(-c4ccc5nc([C@@H]6CCCN6C(=O)[C@@H](NC(=O)OC)C(C)C)[nH]c5c4)c4ocnc34)ccc2[nH]1)C(C)C` [Compound 173], the EC50 was not above 5 nM.
Regarding `COC(=O)N[C@H](C(=O)N1C[C@H](OC)C[C@H]1c1nc2cc(-c3ccc(-c4ccc5[nH]c([C@@H]6C[C@@H](OC)CN6C(=O)[C@@H](NC(=O)OC)C(C)C)nc5c4)cc3)ccc2[nH]1)C(C)C` [Compound 174], the EC50 is not above 5 nM.
For `COC(=O)N[C@H](C(=O)N1CCC[C@H]1c1nc2cc(-c3cnc(-c4ccc5[nH]c([C@@H]6CCCN6C(=O)[C@@H](NC(=O)OC)C(C)C)nc5c4)s3)ccc2[nH]1)C(C)C` [Compound 176], the EC50 fell in the range of 5 to 5000 nM.
Regarding `COC(=O)N[C@H](C(=O)N1CCC[C@H]1c1nc2cc(-c3ccc(-c4ccc5nc([C@@H]6CCCN6C(=O)[C@@H](NC(=O)OC)C(C)C)[nH]c5c4)cc3C(F)(F)F)ccc2[nH]1)C(C)C` [Compound 177], the EC50 is not above 5 nM.
Same read-out and setting: as for `CCOC(=O)N[C@H](C(=O)N1CCC[C@H]1c1nc2cc(-c3ccc(-c4ccc5[nH]c([C@@H]6CCCN6C(=O)[C@@H](NC(=O)OCC)C(C)C)nc5c4)cc3)ccc2[nH]1)C(C)C` [Compound 178], the figure is not above 5 nM.
`COC(=O)NC(C(=O)N1CCCC1c1nc2cc(-c3ccc(-c4ccc5[nH]c([C@@H]6CCCN6C(=O)C(NC(=O)OC)C(C)(C)F)nc5c4)cc3)ccc2[nH]1)C(C)(C)F` (some centres unmarked) [Compound 179]: the EC50 was not above 5 nM.
The same measure, in the same setting: next, `COC(=O)NC(C(=O)N1CCC[C@H]1c1nc2cc(-c3ccc(-c4ccc5[nH]c([C@@H]6CCCN6C(=O)C(NC(=O)OC)C(C)(C)F)nc5c4)cc3)ccc2[nH]1)C(C)(C)F` (some centres unmarked) [Compound 180]: not above 5 nM; `COC(=O)N[C@H](C(=O)N1CCC[C@H]1c1nc2cc(-c3ccc(-c4ccc5nc([C@@H]6CCCN6C(=O)[C@@H](NC(=O)OC)C(C)C)[nH]c5c4)cc3C(=O)OC)ccc2[nH]1)C(C)C` [Compound 181]: not above 5 nM.
The same measure, in the same setting: next, `COC(=O)N(C)[C@H](C(=O)N1CCC[C@H]1c1nc2cc(-c3ccc(-c4ccc5nc([C@@H]6CCCN6C(=O)[C@H](C(C)C)N(C)C(=O)OC)[nH]c5c4)c4c3OCO4)ccc2[nH]1)C(C)C` [Compound 182]: not above 5 nM.
As to `COC(=O)N[C@H](C(=O)N1CCC[C@H]1c1nc2cc(-c3nnc(-c4ccc5[nH]c([C@@H]6CCCN6C(=O)[C@@H](NC(=O)OC)C(C)C)nc5c4)s3)ccc2[nH]1)C(C)C` [Compound 184], the EC50 is not above 5 nM.
Still for that read-out and setting: as for `COC(=O)N[C@H](C(=O)N1CCC[C@H]1c1nc2cc(-c3ccc(-c4ccc5nc([C@@H]6CCCN6C(=O)[C@@H](NC(=O)OC)[C@@H](C)OC)[nH]c5c4)c4c3OCO4)ccc2[nH]1)[C@@H](C)OC` [Compound 185], the figure is not above 5 nM; as for `COC(=O)N[C@H](C(=O)N1C[C@@H](C)C[C@H]1c1nc2cc(-c3ccc(-c4ccc5[nH]c([C@@H]6C[C@H](C)CN6C(=O)[C@@H](NC(=O)OC)C(C)C)nc5c4)cc3)ccc2[nH]1)C(C)C` [Compound 186], not above 5 nM; as for `COC(=O)N[C@H](C(=O)N1CCC[C@H]1c1nc2cc(-c3ccc(-c4ccc5[nH]c([C@@H]6CC(F)(F)CN6C(=O)[C@@H](NC(=O)OC)C(C)C)nc5c4)cc3)ccc2[nH]1)C(C)C` [Compound 187], not above 5 nM.
Same read-out and setting: next, `COC(=O)N[C@H](C(=O)N1CCC[C@H]1c1nc2cc(-c3ccc(-c4ccc5nc([C@@H]6CCCN6C(=O)[C@@H](NC(=O)OC)[C@@H](C)OC)[nH]c5c4)c4ncoc34)ccc2[nH]1)[C@@H](C)OC` [Compound 188]: not above 5 nM.
Same read-out and setting: next, `CC(C)[C@H](NC(=O)OC(C)(C)C)C(=O)N1CCC[C@H]1c1nc2ccc(-c3ccc(-c4ccc5nc([C@@H]6CCCN6C(=O)[C@@H](NC(=O)OC(C)(C)C)C(C)C)[nH]c5c4)cc3)cc2[nH]1` [Compound 189]: 5 to 5000 nM.
In the case of `COC(=O)NC(C(=O)N1CCCC1c1nc2cc(-c3ccc(-c4ccc5nc(C6CCCN6C(=O)C(NC(=O)OC)C(C)(C)C)[nH]c5c4)cc3)ccc2[nH]1)C(C)(C)C` (centres unmarked) [Compound 190], the EC50 is not above 5 nM.
On the same count and under the same terms, as for `c1cc(-c2ccc3[nH]c([C@@H]4CCCN4CCC4CCOCC4)nc3c2)ccc1-c1ccc2[nH]c(C3CCCN3CCC3CCOCC3)nc2c1` (some centres unmarked) [Compound 192], the figure is 5 to 5000 nM.
